This is an account of results in the NIST ThermoML archive (doi:10.1016/j.tca.2016.05.011).

Each structure is given as a SMILES string. ± gives the expanded uncertainty stated by the source.

A short description of this data set: Boiling temperature at pressure P. The conditions noted are these: Liquid, DSC.

For `CC(C)(C)c1ccccc1O` [2-tert-butyl-1-hydroxybenzene], the “Boiling temperature at pressure P” value came to 145.4 ± 1.6 °C (9.9 kPa); 165.5 ± 2.6 °C (19.82 kPa); 178.6 ± 2.3 °C (29.75 kPa); 196.2 ± 3.1 °C (49.63 kPa); 206.1 ± 3.3 °C (64.61 kPa).

Turning to `Cc1ccccc1` [toluene], the “Boiling temperature at pressure P” value turned out to be 72.4 ± 1.8 °C (29.65 kPa); 87.5 ± 2.5 °C (49.44 kPa); 98.0 ± 2.4 °C (69.2 kPa); 111.2 ± 3.2 °C (101.6 kPa); 145.5 ± 4.5 °C (247.5 kPa).
